Source: US10202378B2, “Therapeutic compounds and uses thereof” (GENENTECH, INC., priority 2015, dated 2019)

Assays:
[1] = target: TAF1-BD1 (Homo sapiens, UniProt P21675); experiment: TAF1-BD1 TR-FRET Binding Assay; settings: read-out: TAF1-BD1 HTRF IC50
[2] = target: TAF1-BD2 (Homo sapiens, UniProt P21675); experiment: TAF1-BD2 TR-FRET Binding Assay; settings: read-out: TAF1-BD2 HTRF IC50

Structure (SMILES)	IC50 [1] [µM]	IC50 [2] [µM]
CCOC(=O)c1c(C)[nH]c2c(=O)n(CC)cc(C#CC(C)(C)O)c12 [Example 50, ethyl 6-ethyl-4-(3-hydroxy-3-methyl-but-1-ynyl)-2-methyl-7-oxo-1H-pyrrolo[2,3-c]pyridine-3-carboxylate]	9.87	0.45
COc1ccccc1COC(=O)c1c(C)[nH]c2c(=O)n(C)cc(C#CC(C)(C)O)c12 [Example 113, (2-methoxyphenyl)methyl-4-(3-hydroxy-3-methyl-but-1-ynyl)-2,6-dimethyl-7-oxo-1H-pyrrolo[2,3-c]pyridine-3-carboxylate]	0.123	0.024
Cc1[nH]c2c(=O)n(C)cc(C#CC(O)(c3ccccc3)C(F)(F)F)c2c1C(=O)OC(C)c1ccccc1 (stereo not drawn) [Example 104, 1-phenylethyl 2,6-dimethyl-7-oxo-4-(4,4,4-trifluoro-3-hydroxy-3-phenyl-but-1-ynyl)-1H-pyrrolo[2,3-c]pyridine-3-carboxylate]	3.21	1.2
CCOC(=O)c1c(C)[nH]c2c(=O)n(C)cc(C#CC(O)(c3cccc(-c4cc[nH]n4)c3)C(F)(F)F)c12 (stereo not drawn) [Example 44, ethyl 2,6-dimethyl-7-oxo-4-[4,4,4-trifluoro-3-hydroxy-3-[3-(1H-pyrazol-3-yl)phenyl]but-1-ynyl]-1H-pyrrolo[2,3-c]pyridine-3-carboxylate]	0.226	0.017
Cc1cc([C@](C)(O)C#Cc2cn(C)c(=O)c3[nH]c(C)c(C(=O)OCC(C)C)c23)no1 [Example 158, isobutyl 4-[(3R)-3-hydroxy-3-(5-methylisoxazol-3-yl)but-1-ynyl]-2,6-dimethyl-7-oxo-1H-pyrrolo[2,3-c]pyridine-3-carboxylate]	0.112	0.0502
Cc1[nH]c2c(=O)n(C)cc(C#CC(C)(O)C3CC3)c2c1-c1nnc(C2CCOC2)o1 (single isomer, unassigned) [Example 96b, 4-(3-cyclopropyl-3-hydroxy-but-1-ynyl)-2,6-dimethyl-3-(5-tetrahydrofuran-3-yl-1,3,4-oxadiazol-2-yl)-1H-pyrrolo[2,3-c]pyridin-7-one]	1.14	0.26
Cc1[nH]c2c(=O)n(C)cc(C#CC(C)(O)C3CC3)c2c1-c1nnc(C(C)(C)O)o1 (stereo not drawn) [Example 172, 4-(3-cyclopropyl-3-hydroxy-but-1-ynyl)-3-(5-(1-hydroxy-1-methyl-ethyl)-1,3,4-oxadiazol-2-yl)-2,6-dimethyl-1H-pyrrolo[2,3-c]pyridin-7-one]	0.451	0.11
Cc1[nH]c2c(=O)n(C)cc(C#CC(O)(c3ccccc3)C(F)(F)F)c2c1C(=O)OCCC#N (stereo not drawn) [Example 166, 2-cyanoethyl 2,6-dimethyl-7-oxo-4-(4,4,4-trifluoro-3-hydroxy-3-phenyl-but-1-ynyl)-1H-pyrrolo[2,3-c]pyridine-3-carboxylate]	0.214	0.0312
CC(=O)NCc1nnc(-c2c(C)[nH]c3c(=O)n(C)cc(C#CC(O)(c4ccccc4)C(F)(F)F)c23)o1 (stereo not drawn) [Example 173, N-[[5-[2,6-dimethyl-7-oxo-4-(4,4,4-trifluoro-3-hydroxy-3-phenyl-but-1-ynyl)-1H-pyrrolo[2,3-c]pyridin-3-yl]-1,3,4-oxadiazol-2-yl]methyl]acetamide]	0.49	0.117
